According to patent publication US20240294467A1, “USP9X Inhibitors” (ProDeg, LLC, priority 2021, published 2024):

Target: USP9X (Homo sapiens (Human), UniProt Q93008)
Test: USP9X enzyme activity assay, ubiquitin-rhodamine110 substrate
Conditions: for USP9X IC50/UM / IC50: Table 8; for IC50: read-out: USP9X IC50/UM
Method: The inhibition property of compound Compound 1A was evaluated in assays measuring the ability of USP9X to catalyze the hydrolysis of the amide bond between the C terminal carboxylate of ubiquitin and rhodamine110 of the fluorogenic substrate ubiquitin-rhodamine 110. To the wells of a 96 well reaction plate was added 12.5 μL USP9X solution (1.3 nM) in assay buffer (100 mM NaCl, 1 mM DTT, 0.1% bovine serum albumin, 0.05% Tween 20, 50 mM Tris, pH 7.5). 12.5 μL of Compound 1A in assay buffer (4×final concentration) was added to the wells containing the USP9X solution, and the solution was gently mixed by pipetting up and down several times. The plate was sealed and incubated at room temperature for 20 minutes.
Then 25 μL of the 1 μM substrate (ubiquitin-rhodaminel10) solution was added in assay buffer. The final substrate concentration was 0.5 μM. […] The slope for the rate of change of the fluorescence was determined and plotted vs the concentration of Compound 1A.
USP9X enzyme assays were set up in a 96 well plate to assess the abilities of Compound 3A and Compound 4A to inhibit the activity of USP9X, respectively. Ubiquitin-rhodamine110 was used as the substrate and ubiquitin aldehyde was included in the assay as a positive control.
Purified recombinant USPx9 (R&D Systems) in 50 mM Tris buffer pH 7.5, 1 mM DTT, 100 mM NaCl, 0.05% Tween 20 and 0/1% BSA is used at a concentration of 0.325 nM with 0.5 μM ubiquitin-rhodamine (R&D Systems).

USP9X, sequence (Q93008 whole entry): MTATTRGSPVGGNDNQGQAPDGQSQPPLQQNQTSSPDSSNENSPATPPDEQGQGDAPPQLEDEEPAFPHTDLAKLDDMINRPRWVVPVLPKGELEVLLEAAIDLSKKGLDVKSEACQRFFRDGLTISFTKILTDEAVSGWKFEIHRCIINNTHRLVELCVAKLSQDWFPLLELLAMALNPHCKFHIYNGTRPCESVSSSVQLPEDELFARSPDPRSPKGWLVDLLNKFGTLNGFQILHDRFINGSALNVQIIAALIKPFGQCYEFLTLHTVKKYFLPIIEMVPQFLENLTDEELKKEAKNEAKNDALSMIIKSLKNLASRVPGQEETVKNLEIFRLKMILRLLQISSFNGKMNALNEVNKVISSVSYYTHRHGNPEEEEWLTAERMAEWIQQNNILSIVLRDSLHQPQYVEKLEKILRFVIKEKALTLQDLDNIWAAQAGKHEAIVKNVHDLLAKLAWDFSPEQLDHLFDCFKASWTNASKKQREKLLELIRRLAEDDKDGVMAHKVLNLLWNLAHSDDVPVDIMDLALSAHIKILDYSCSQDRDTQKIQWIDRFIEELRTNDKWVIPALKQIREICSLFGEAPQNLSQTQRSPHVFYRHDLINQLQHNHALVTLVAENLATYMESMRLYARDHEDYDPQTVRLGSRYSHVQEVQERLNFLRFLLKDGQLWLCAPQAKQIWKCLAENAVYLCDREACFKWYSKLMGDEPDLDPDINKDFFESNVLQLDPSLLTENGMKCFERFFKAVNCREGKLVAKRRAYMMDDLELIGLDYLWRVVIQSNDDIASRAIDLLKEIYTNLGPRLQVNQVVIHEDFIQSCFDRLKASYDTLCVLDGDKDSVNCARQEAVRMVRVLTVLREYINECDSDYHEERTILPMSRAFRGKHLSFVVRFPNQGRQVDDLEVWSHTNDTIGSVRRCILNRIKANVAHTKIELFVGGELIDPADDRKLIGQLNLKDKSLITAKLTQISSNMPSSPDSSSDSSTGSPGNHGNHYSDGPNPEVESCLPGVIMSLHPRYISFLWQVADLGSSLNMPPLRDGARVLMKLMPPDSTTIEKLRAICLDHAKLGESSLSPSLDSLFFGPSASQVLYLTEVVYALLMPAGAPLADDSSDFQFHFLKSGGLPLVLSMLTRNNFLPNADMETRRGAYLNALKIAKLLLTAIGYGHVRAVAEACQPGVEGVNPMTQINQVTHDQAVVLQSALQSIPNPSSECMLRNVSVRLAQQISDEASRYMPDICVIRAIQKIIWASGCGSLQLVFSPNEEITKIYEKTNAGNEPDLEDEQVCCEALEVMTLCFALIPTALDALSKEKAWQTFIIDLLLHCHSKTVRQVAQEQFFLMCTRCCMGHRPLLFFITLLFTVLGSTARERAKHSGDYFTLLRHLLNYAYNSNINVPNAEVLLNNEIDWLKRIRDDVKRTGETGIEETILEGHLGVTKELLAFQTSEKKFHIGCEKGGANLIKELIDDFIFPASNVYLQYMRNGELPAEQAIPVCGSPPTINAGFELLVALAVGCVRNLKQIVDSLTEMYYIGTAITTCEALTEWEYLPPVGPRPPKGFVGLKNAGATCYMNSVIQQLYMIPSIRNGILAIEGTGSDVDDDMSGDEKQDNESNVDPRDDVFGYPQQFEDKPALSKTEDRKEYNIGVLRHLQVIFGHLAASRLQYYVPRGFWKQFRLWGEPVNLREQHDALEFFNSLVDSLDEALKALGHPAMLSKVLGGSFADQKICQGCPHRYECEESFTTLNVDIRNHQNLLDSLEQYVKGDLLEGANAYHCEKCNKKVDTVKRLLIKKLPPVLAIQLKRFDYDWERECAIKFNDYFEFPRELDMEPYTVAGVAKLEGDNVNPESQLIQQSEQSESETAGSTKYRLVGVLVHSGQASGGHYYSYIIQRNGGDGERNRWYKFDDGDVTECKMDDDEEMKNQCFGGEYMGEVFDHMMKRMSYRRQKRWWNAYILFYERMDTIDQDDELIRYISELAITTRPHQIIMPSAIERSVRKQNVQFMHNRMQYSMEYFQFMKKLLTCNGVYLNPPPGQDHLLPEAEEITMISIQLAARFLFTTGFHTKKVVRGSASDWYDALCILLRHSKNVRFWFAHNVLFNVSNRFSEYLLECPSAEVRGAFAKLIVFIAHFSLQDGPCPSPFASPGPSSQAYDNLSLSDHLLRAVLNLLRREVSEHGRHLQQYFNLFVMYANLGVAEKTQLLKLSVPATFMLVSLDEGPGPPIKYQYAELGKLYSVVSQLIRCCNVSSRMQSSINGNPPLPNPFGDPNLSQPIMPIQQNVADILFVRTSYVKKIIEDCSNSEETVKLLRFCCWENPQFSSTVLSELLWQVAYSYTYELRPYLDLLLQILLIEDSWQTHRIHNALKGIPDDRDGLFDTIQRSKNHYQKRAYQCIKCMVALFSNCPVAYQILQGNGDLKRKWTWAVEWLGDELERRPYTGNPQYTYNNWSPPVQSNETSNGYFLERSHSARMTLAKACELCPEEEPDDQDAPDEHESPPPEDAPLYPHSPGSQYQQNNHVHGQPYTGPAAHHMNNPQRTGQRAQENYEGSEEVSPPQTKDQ

IC50 | SMILES | also measured
0.65 µM | CC(=O)NCCc1ccc(NC(=O)[C@H](CC(C)(C)C)NC(=O)c2cccc(CNC(=O)c3ccc(OCCO)cc3)c2)cc1 [Compound 64] | –
7 µM | CNCCOc1ccc(C(=O)NCc2cccc(C(=O)N3CCCC3C(=O)Nc3ccc(CCC(=O)O)cc3)c2)cc1 (stereo not shown) [Compound 35] | –
1.3 µM | CNCCOc1ccc(C(=O)NCc2cccc(C(=O)N[C@@H](CC(C)(C)C)C(=O)Nc3ccc(CC(F)(F)F)cc3)c2)cc1 [Compound 12] | –
6 µM | CNCCOc1ccc(C(=O)NCc2cccc(C(=O)N[C@@H](CC(C)C)C(=O)Nc3ccc(CCC(=O)O)cc3)c2)cc1 [Compound 31] | –
1.3 µM | CNC(=O)CCc1ccc(NC(=O)[C@H](CC(C)(C)C)NC(=O)c2cccc(CNC(=O)c3ccc(OC)cc3)c2)cc1 [Compound 42] | –
0.055 µM | CN(C)CCOc1ccc(C(=O)NCc2cccc(C(=O)N[C@@H](CC(C)(C)C)C(=O)Nc3ccc(CN4CCCC4)cc3)c2)cc1 [Compound 5] | –

Further lines, the compound ahead of its results:

SMILES | IC50 | also measured
CC(C)(C)C[C@H](N)C(=O)Nc1ccc(CCNC(=O)CC(C)(C)CC(=O)NCCOc2ccc(C(=O)NCc3cccc(C(=O)O)c3)cc2)cc1 [Compound 69] | – | USP9X IC50/UM: >50 UM
CN(C)CCOc1ccc(C(=O)NCc2cccc(C(=O)N[C@@H](CC(C)(C)C)C(=O)Nc3ccc(CCN4CCOCC4)cc3)c2)cc1 [Compound 14] | 0.12 µM | –
CNCCOc1ccc(C(=O)NCc2cccc(C(=O)N[C@@H](CC(C)(C)C)C(=O)Nc3ccc(CC(NC(=O)CC(C)(C)CC(=O)O)C(=O)OC)cc3)c2)cc1 (stereo partly shown) [Compound 1] | 0.53 µM | –
CNCCOc1ccc(C(=O)NCc2cccc(C(=O)N[C@@H](CC(C)(C)C)C(=O)Nc3ccc(CCNC(=O)CC(C)(C)CC(=O)O)cc3)c2)cc1 [Compound 2] | 0.18 µM | –
CC(C)(C)C[C@H](NC(=O)c1cccc(CNC(=O)c2ccccc2)c1)C(=O)Nc1ccc(CCC(=O)O)cc1 [Compound 57] | 7 µM | –
CN(C)CCOc1ccc(C(=O)NCc2cccc(C(=O)N[C@@H](CC(C)(C)C)C(=O)N(C)Cc3ccccc3)c2)cc1 [Compound 26] | – | USP9X IC50/UM: >50 UM
CN(C)CCOc1ccc(C(=O)NCc2cccc(C(=O)N[C@@H](CC(C)(C)C)C(=O)NCCN3CCCC3)c2)cc1 [Compound 19] | 8 µM | –
CNCCOc1ccc(C(=O)NCc2cccc(C(=O)N3CCCC3C(=O)Nc3ccc(CCC(=O)O)cc3)c2)cc1 (stereo not shown) [Compound 36] | – | USP9X IC50/UM: >50 UM
COC(=O)c1cc(NC(=O)[C@H](CC(C)(C)C)NC(=O)c2cccc(CNC(=O)c3ccc(OCCN(C)C)cc3)c2)ccc1C [Compound 24] | 0.066 µM | –
CNC(=O)c1cccc(CNC(=O)c2ccc(OCCNC(=O)CC(C)(C)CC(=O)NCCc3ccc(NC(=O)[C@H](CC(C)(C)C)NC(C)=O)cc3)cc2)c1 [Compound 71] | – | USP9X IC50/UM: >50 UM
COc1ccc(C(=O)NCc2cccc(C(=O)N[C@@H](CC(C)(C)C)C(=O)Nc3ccc(CCN(C)C)cc3)c2)cc1 [Compound 44] | 0.24 µM | –
CC(C)(C)C[C@H](NC(=O)c1cccc(CNC(=O)c2ccc(OCCO)cc2)c1)C(=O)Nc1ccccc1 [Compound 61] | 5.8 µM | –
CC(C)(C)C[C@H](NC(=O)c1cccc(CN)c1)C(=O)Nc1ccc(CCNC(=O)CC(C)(C)CC(=O)NCCOc2ccc(C(=O)O)cc2)cc1 [Compound 72] | 29 µM | –
CC(=O)N[C@@H](CC(C)(C)C)C(=O)Nc1ccc(CCNC(=O)CC(C)(C)CC(=O)NCCOc2ccc(C(=O)NCc3cccc(C(=O)O)c3)cc2)cc1 [Compound 70] | – | USP9X IC50/UM: >50 UM
CN1CCOc2ccc(cc2)C(=O)NCc2ccc(F)c(c2)C(=O)N[C@@H](CC(C)(C)C)C(=O)Nc2ccc(cc2)CCN(C)C(=O)CCC(C)(C)CCC1=O [Compound 1A, (S)-5^4-fluoro-14,18,18,22-tetramethyl-S-neopentyl-25-oxa-3,7,10,14,22-pentaaza-1,11(1,4),5(1,3)-tribenzenacyclopentacosaphane-2,6,9,15,21-pentaone] | – | effect on USP9X activity (ubiquitin-rhodamine110 substrate): partially inhibited
Cc1ccc(NC(=O)[C@H](CC(C)(C)C)NC(=O)c2cccc(CNC(=O)c3ccc(OCCN(C)C)cc3)c2)cc1 [Compound 22] | 0.42 µM | –
